Data on 46 compounds can be found in patent publication US10633389B2, “CARM1 inhibitors and uses thereof” (Epizyme, Inc., priority 2013, dated 2020).

Usually pIC50 stands for −log10 of the IC50, conventionally taken in molar units.

The test system of the experiment is asymmetric di-methyl PABP1 in RKO cells. The experiment can be described thus: RKO methylation assay, In Cell Western (ICW) for asymmetric di-methyl PABP1. Type of experiment: cell-based. Particulars: Homo sapiens, RKO, Cellular potencies, ICW PABP1me2a. The gist of the method: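 RKO cells treated with compound for 48 h at 37 °C, then fixed, permeabilized and immunostained for asymmetric di-methyl PABP1, with DRAQ5 as DNA stain. Infrared 700/800 nm signal ratio normalized to DMSO and 20 μM reference-compound controls; IC50 from triplicate wells.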

pIC50: −log10 of the molar value.

As for `CNC[C@@H](O)COc1ccc(Cl)c(-c2nc(-c3cnn(C)c3)c(C)c(-c3c(C)noc3C)n2)c1` [Example 239-3], the pIC50 is > 5.30.
As to `CNCC(O)COc1cccc(-c2nc(-c3ccnc(OC)c3)cc(N(C)C3CCOCC3)n2)c1` (stereo not shown) [Example 541-1a], the pIC50 is 4.70 to 5.00.
To `CNC[C@@H](O)COc1cccc(-c2nc(N[C@@H]3CCN(C4CC4)C[C@@H]3F)c(Cl)c(-c3c(C)noc3C)n2)c1` [Example 68-3] belongs > 5.30; to `CNCC(O)COc1cccc(-c2nc(-c3cnc(C)n3C)cc(N(C)C3CCOCC3)n2)c1` (stereo not shown) [Example 517-1a], 5.00 to 5.30; to `CNCC(O)COc1cccc(-c2nc(NC3(C(F)(F)F)CC3)c(C)c(-c3c(C)noc3C)n2)c1` (stereo not shown) [Example 8-3], > 5.30.
For the compound `CNC[C@H](O)COc1ccc(F)c(-c2nc(-c3c(C)noc3C)c(C)c(N3CCC4(CCN(C(=O)OC)C4)C3)n2)c1` (stereo partly shown) [Example 106-3], the negative logarithm of the IC50 (pIC50) is > 5.30.
Then `CNCC(O)COc1cccc(-c2nc(-c3c(C)noc3C)cc(N3CCN(CC(F)F)CC3)n2)c1` (stereo not shown) [Example 79-1a], with > 5.30; and `CNCC(O)COc1cc(Cl)cc(-c2nc(-c3ccnc(N(C)C)c3)cc(N(C)C3CCOCC3)n2)c1` (stereo not shown) [Example 609-1a], with 4.70 to 5.00; and `CNC[C@@H](O)COc1ccc(Cl)c(-c2nc(-c3c(C)noc3C)c(F)c(N3CC4(CCOCC4)C3)n2)c1` [Example 261-3], with > 5.30.
Then `CNCC(O)COc1ccc(Cl)c(-c2nc(NCC3CCOC3)c(C)c(-c3c(C)noc3C)n2)c1` (stereo not shown) [Example 30-3], with > 5.30; and `CNC[C@@H](O)COc1ccc(Cl)c(-c2nc(N[C@H]3CCOC3)c(C)c(-c3c(C)noc3C)n2)c1` [Example 111-3], with > 5.30.
Then `CNCC(O)COc1cccc(-c2nc(N[C@@H]3CCOC3)c(C)c(N3CCNCC3)n2)c1` (stereo partly shown) [Example 422-1a], with 4.70 to 5.00; and `CNCC(O)COc1cccc(-c2nc(-c3c(C)noc3C)cc(N3CCNC(C)C3)n2)c1` (stereo not shown) [Example 35-1a], with 5.00 to 5.30; and `CNC[C@H](O)COc1ccc(F)c(-c2nc(NC3CCN(C(=O)OC)CC3)c(C)c(-c3c(C)noc3C)n2)c1` [Example 26-3], with > 5.30.
`CNC[C@H](O)COc1ccc(Cl)c(-c2nc(-c3c(C)noc3C)c(C)c(N3Cc4cccnc4C3)n2)c1` [Example 92-3]: the pIC50 was > 5.30.
To `CCOC(=O)N1CCOC[C@@H]1CNc1nc(-c2cccc(OCC(O)CNC)c2)nc(-c2c(C)noc2C)c1C` (stereo partly shown) [Example 206-1a] belongs > 5.30; to `CNCC(O)COc1cccc(-c2nc(OCC3CCN(C4CC4)CC3)c(C)c(-c3c(C)noc3C)n2)c1` (stereo not shown) [Example 303-1a], > 5.30; to `CNCC(O)COc1cccc(-c2nc(NC3CCN(C(=O)OC)CC3)c(Cl)c(-c3c(C)noc3C)n2)c1` (stereo not shown) [Example 202-1a], > 5.30.
For the compound `CNC[C@H](O)COc1cccc(-c2nc(NC3CCN(C(=O)OC)CC3)c(C)c(-c3c(C)noc3C)n2)c1` [Example 169-1a], the pIC50 was > 5.30.
To `CCOC(=O)N1CCC(N(C)c2cc(-c3c(C)noc3C)nc(-c3cccc(OCC(O)CNC)c3)n2)CC1` (stereo not shown) [Example 172-1a] belongs > 5.30; to `CNCC(O)COc1cccc(-c2nc(Nc3nncs3)c(C)c(-c3c(C)noc3C)n2)c1` (stereo not shown) [Example 215-1a], > 5.30.
To `CNCC(O)COc1cccc(-c2nc(-c3c(C)noc3C)cc(N3CCN(C4CCOCC4)CC3)n2)c1` (stereo not shown) [Example 166-1a] belongs > 5.30; to `CCOC(=O)N1CCOC[C@@H]1CNc1nc(-c2cccc(OC[C@@H](O)CNC)c2)nc(-c2c(C)noc2C)c1C` [Example 278-1a], > 5.30.
Then `CNCC(O)COc1cccc(-c2nc(-c3c(C)noc3C)c(C)c(N(C)CC3CCOCC3)n2)c1` (stereo not shown) [Example 86-1a], with 5.00 to 5.30; and `CNC[C@H](O)COc1ccc(Cl)c(-c2nc(NC3CCN(C(=O)OC)CC3)c(C)c(-c3c(C)noc3C)n2)c1` [Example 89-3], with > 5.30.
For the compound `CNCC(O)COc1cccc(-c2nc(NC3CCN(C(=O)C4CC4)CC3)c(C)c(-c3c(C)noc3C)n2)c1` (stereo not shown) [Example 245-1a], the pIC50 was > 5.30.
To `CNCC(O)COc1cccc(-c2nc(-c3c(C)noc3C)cc(N(CCOC)C3CCOCC3)n2)c1` (stereo not shown) [Example 98-1a] belongs > 5.30; to `CNCC(O)COc1cccc(-c2nc(N[C@@H]3CCOC3=O)c(C)c(-c3c(C)noc3C)n2)c1` (stereo partly shown) [Example 291-1a], 4.70 to 5.00; to `CNC[C@H](O)COc1ccc(Cl)c(-c2nc(-c3c(C)noc3C)c(C)c(N3CCN(C)C(C(F)F)C3)n2)c1` (stereo partly shown) [Example 74-3], > 5.30.
Then `CNCC(O)COc1cccc(-c2nc(N[C@@H]3CCOC3)c(C)c(N3CCn4ccnc4C3)n2)c1` (stereo partly shown) [Example 359-1a], with 4.70 to 5.00.
Then `CNC[C@@H](O)COc1ccc(Cl)c(-c2nc(NC3CCOCC3)c(C)c(-c3c(C)noc3C)n2)c1` [Example 127-3], with > 5.30; and `CNC[C@@H](O)COc1ccc(Cl)c(-c2nc(NC[C@@H]3CCCO3)c(C)c(-c3c(C)noc3C)n2)c1` [Example 131-3], with > 5.30; and `CNCC(O)COc1cccc(-c2nc(-c3c(C)noc3C)c(C)c(N3CCN(C(=O)OCC(F)F)CC3)n2)c1` (stereo not shown) [Example 161-1a], with > 5.30.
As to `CNCC(O)COc1ccc(Cl)c(-c2nc(NC3CC4(CC4)C3)c(C)c(-c3c(C)noc3C)n2)c1` (stereo not shown) [Example 218-3], the pIC50 is > 5.30.
Then `CNCC(O)COc1cccc(-c2nc(-c3c(C)noc3C)c(C)c(N3CC[C@H](N(C)C(C)=O)C3)n2)c1` (stereo partly shown) [Example 71-1a], with > 5.30; and `CNC[C@@H](O)COc1cccc(-c2nc(-c3cnc4cnccn34)cc(N(C)C3CCOCC3)n2)c1` [Example 507-1a], with > 5.30.
Regarding `CNC[C@@H](O)COc1ccc(Cl)c(-c2nc(N[C@H]3COC[C@@H]3O)c(C)c(-c3c(C)noc3C)n2)c1` [Example 209-3], the pIC50 was > 5.30.
To `CNCC(O)COc1cccc(-c2nc(NCC3(OC)CCOCC3)c(C)c(-c3c(C)noc3C)n2)c1` (stereo not shown) [Example 300-1a] belongs > 5.30; to `CNCC(O)COc1cccc(-c2nc(-c3c(C)noc3C)c(C)c(N3CCO[C@H](CN(C)S(C)(=O)=O)C3)n2)c1` (stereo partly shown) [Example 126-1a], 5.00 to 5.30; to `CNCC(O)COc1cc(Cl)cc(-c2nc(NC3CCN(CC(F)F)CC3)c(C)c(-c3c(C)noc3C)n2)c1` (stereo not shown) [Example 21-3], > 5.30.
Then `CNCC(O)COc1cccc(-c2nc(-c3c(C)noc3C)c(F)c(N3CCN(C(=O)OC)CC3)n2)c1` (stereo not shown) [Example 97-1a], with > 5.30; and `CNCC(O)COc1cccc(-c2nc(N3CC4(CCNCC4)c4ccccc43)cc(N(C)C3CCOCC3)n2)c1` (stereo not shown) [Example 559-1a], with 4.70 to 5.00; and `CNC[C@@H](O)COc1ccc(Cl)c(-c2nc(-c3c(C)noc3C)cc(N3Cc4nccnc4C3)n2)c1` [Example 251-3], with > 5.30.
`CNC[C@@H](O)COc1ccc(Cl)c(-c2nc(-c3c(C)noc3C)c(C)c(N3CCC4(C3)CN(C3CC3)C4)n2)c1` [Example 178-3]: the pIC50 was > 5.30.
Then `CNCC(O)COc1cccc(-c2nc(N[C@H]3CCOC3)cc(-c3c(C)noc3C)n2)c1` (stereo partly shown) [Example 13-1a], with 5.00 to 5.30; and `CNC[C@@H](O)COc1cccc(-c2nc(-c3cn(S(C)(=O)=O)c4ncncc34)cc(N(C)C3CCOCC3)n2)c1` [Example 511-1a], with 5.00 to 5.30.
